# Laboratory results published in ChEMBL document CHEMBL3808297, “The synthesis and synergistic antifungal effects of chalcones against drug resistant Candida albicans” (2016).
# How the values were obtained:
# Format in all cases: functional
# Candida albicans [1] = assay: Antifungal activity against fluconazole-resistant Candida albicans clinical isolate 103 by microbroth dilution method in presence of 8 ug/ml fluconazole
# Candida albicans [2] = assay: Antifungal activity against fluconazole-resistant Candida albicans clinical isolate 103 by microbroth dilution method
# Candida albicans [3] = assay: Antifungal activity against fluconazole-resistant Candida albicans clinical isolate 103 assessed as fractional inhibitory concentration index by microbroth dilution method in presence of 8 ug/ml fluconazole
SMILES,MIC80 (Candida albicans [1]),MIC80 (Candida albicans [2]),fractional inhibitory concentration index (FICI) (Candida albicans [3])
O=C(/C=C/c1cccs1)c1ccccc1O,> 64 mg/L,> 64 mg/L,>1.06
COc1cc(/C=C/C(=O)c2ccccc2O)ccc1O,> 64 mg/L,> 64 mg/L,>1.06
O=C(/C=C/c1ccc(F)cc1)c1ccccc1O,32 mg/L,> 64 mg/L,0.315
COc1ccc(/C=C/C(=O)c2ccccc2F)cc1,64 mg/L,> 64 mg/L,0.506
COc1ccc(/C=C/C(=O)c2ccc(O)cc2)cc1OC,> 64 mg/L,> 64 mg/L,>1.06
O=C(/C=C/c1ccc(C(F)(F)F)cc1)c1ccccc1O,64 mg/L,> 64 mg/L,0.506
O=C(/C=C/c1ccc2c(c1)OCO2)c1ccccc1O,32 mg/L,> 64 mg/L,0.315
COc1ccc(C(=O)/C=C/c2ccccc2)c(O)c1,1 mg/L,> 64 mg/L,–
COc1cccc(O)c1C(=O)/C=C/c1ccccc1,16 mg/L,> 64 mg/L,0.188
COc1cccc(O)c1C(=O)/C=C/c1ccc2c(c1)OCO2,4 mg/L,> 64 mg/L,0.094
COc1cccc(O)c1C(=O)/C=C/c1ccco1,4 mg/L,> 64 mg/L,0.094
O=C(/C=C/c1ccc(Br)cc1)c1c(O)cccc1O,16 mg/L,> 64 mg/L,0.188
COc1cccc(O)c1C(=O)/C=C/c1cccnc1,8 mg/L,> 64 mg/L,0.125
O=C(/C=C/c1ccc2c(c1)OCO2)c1ccccc1Cl,32 mg/L,> 64 mg/L,0.315
CN(C)c1ccc(/C=C/C(=O)c2ccccc2F)cc1,8 mg/L,> 64 mg/L,0.125
COc1ccc(/C=C/C(=O)c2ccccc2N)cc1OC,32 mg/L,> 64 mg/L,0.315
O=C(/C=C/c1ccccc1)c1cc(Br)c(O)c(Br)c1O,4 mg/L,64 mg/L,0.125
Nc1ccccc1C(=O)/C=C/c1ccco1,> 64 mg/L,> 64 mg/L,>1.06
O=C(/C=C/c1ccc(CO)o1)c1ccccc1O,8 mg/L,> 64 mg/L,0.125
COc1cccc(O)c1C(=O)/C=C/c1cccs1,4 mg/L,> 64 mg/L,0.094
COc1ccc(/C=C/C(=O)c2ccccc2Cl)cc1OC,> 64 mg/L,> 64 mg/L,>1.06
COc1cccc(O)c1C(=O)/C=C/c1ccc(CO)o1,8 mg/L,> 64 mg/L,0.125
O=C(/C=C/c1ccco1)c1ccccc1O,64 mg/L,> 64 mg/L,0.506
O=C(/C=C/c1ccccc1)c1ccc(O)cc1 [4'-HYDROXYCHALCONE],> 64 mg/L,> 64 mg/L,>1.06
O=c1cc(-c2ccccc2)oc2cc(O)c(O)c(O)c12 [BAICALEIN],4 mg/L,32 mg/L,0.188
